Laboratory results: US20170202939A1, “PERSONALIZED CANCER VACCINES AND METHODS THEREFOR” (Washington University, priority 2014, published 2017)
No end group written: not given here.

How the values were obtained:
[1] = system: neoantigen-specific T cells; assay: cytokine production by neoantigen-specific T cells (MILLIPLEX / IFN-γ ELISA); type: cell-based, human; settings: upon antigen stimulation, supernatants at 24 h
Procedure: For analysis of cytokines secreted by T cells upon SCT activation, cultures were activated 14 d after SCT or AT-SCT stimulation, T cells were restimulated with SCT at 1:1 ratio in RPMI 1640 supplemented with 5% pooled human sera (RPMI-5), supernatants were collected 24 h after activation and characterized using a MILLIPLEX® cytokine kit (Millipore, Billerica, Mass.), per the manufacturer's instructions.
(§1) For functional characterization, neoantigen-specific T cell lines were generated using autologous mDC and antigen loaded artificial antigen presenting cells at a ratio of 1:1 as previously described (Carreno, B. M., et al., J. Immunol., 188, 5839-5849, 2012). […] For production of cytokines, neoantigen-specific T cells were restimulated using artificial antigen presenting cells in the presence or absence of peptide, supernatants collected at 24 h and cytokine produced determined using MILLIPLEX® MAP Human Cytokine Panel I (EMD Millipore).
Substantial evidence supports the hypothesis that Th2/Tc2 immune polarization correlates with worse disease outcome in patients with cancer (Fridman, W. H., et al., Nat. Rev. Cancer, 12, 298-306, 2012). […] Thus, we determined production of cytokines upon antigen stimulation as described above. […] Cytokine production was determined using a multi-plex bead assay. […]

[2] = system: peptide-pulsed T2 (HLA-A*02:01) cells; assay: 4 h 51Cr-release assay with peptide titrations on T2 cells (peptide avidity, AAS vs WT recognition); type: cell-based, human; settings: peptide presented on T2 cells
Procedure: ^51Cr release assays to measure specific lysis have been described previously (Carreno, B. M., et al., Immunol. Cell Biol., 87: 167-177, 2009; Linette, G. P. et al., Clin. Cancer Res. 11, 7692-7699, 2005). Melanoma cell lines DM6 (HLAA2+ gp100+) and A375 (HLA-A2+gp100−) were labeled with 25 μCi ^51Cr for 1 hour, washed, and tested as targets in a standard 4-hour assay. Effectors were generated using PBMCs collected after D3 and cultured for 12 days in the presence of peptide (40 μg/ml) and IL2 (50 U/ml every other day). Vaccine-induced antigen-specific T cells were characterized using HLAA*0201/peptide dextramers (Immudex). To determine the avidity (effective concentration at 50% maximal lysis) of vaccine-induced T cells for antigen, T2 cells were pulsed with titrated G209-2M or G280-9V peptide concentrations for 1 hour in serum-free media followed by 51Cr (25 μCi) labeling for 1 hour, washed twice, and tested using vaccine-induced gp100-specific T cells in a standard 4-hour assay.
as §1
To examine cross-reactivity, T2 cells were pulsed with MUT or WT peptide at the indicated concentrations, labeled with ^51CR-chromium and used as target in a cytotoxic assay. Vaccine-induced T cells were incubated with peptide-pulsed T2 cells and ^51Cr-Chromium release measured at 4 h. […]
FIG. 34 illustrates that neoantigen-specific T cells recognition of AAS (closed circles) and WT (open circles) peptides was determined in a standard 4 h ^51Cr-release assay using peptide titrations on T2 (HLAA*02:01) cells. […]

Sequence	cytokine phenotype of neoantigen-specific T cells (IFN-γ relative to IL-4, IL-5, IL-13) [1]	T cell discrimination between mutated (AAS) and wild-type peptide [2]	T cell discrimination between mutated (AAS) and wild-type peptide ([2]; listed as OR8B3)	T cell discrimination between mutated (AAS) and wild-type peptide ([2]; listed as OR8B3 T190I)
CLNEYHLFL	mixed phenotype	–	–	–
KLMNIQQKL	Tc1 phenotype	can discriminate between peptide sequence containing single an changes	–	–
QLSCISTYV	–	–	cannot discriminate between MUT and WT sequences	could not discriminate between AAS and wild-type (WT) peptide
